ChEMBL document CHEMBL1909046, “DrugMatrix in vitro pharmacology data”

System: not listed separately
Test: DRUGMATRIX: beta-Lactamase enzyme inhibition (substrate: Nitrocefin)
Parameters: species or system Bacillus cereus
Settings: Not Active = under 50% inhibition at 10 µM

SMILES | IC50 | Ki
COc1cccc2c1C(=O)c1c(O)c3c(c(O)c1C2=O)C[C@@](O)(C(C)=O)C[C@@H]3O[C@H]1C[C@H](N)[C@H](O)[C@H](C)O1 [DAUNORUBICIN] | Not Active | Not Active
O=C(O)c1cc(-c2ccc(F)cc2F)ccc1O [DIFLUNISAL] | Not Active | Not Active
C[S+](C)[O-] [DIMETHYL SULFOXIDE] | Not Active | Not Active
CC1=NN(c2ccccc2)C(=O)C1 [EDARAVONE] | Not Active | Not Active
CC(C)C[C@H]1C(=O)N2CCC[C@H]2[C@]2(O)O[C@](NC(=O)[C@@H]3C=C4c5cccc6[nH]cc(c56)C[C@H]4N(C)C3)(C(C)C)C(=O)N12 [ERGOCRYPTINE] | Not Active | Not Active
C[C@]12CC[C@@H]3c4ccc(O)cc4CC[C@H]3[C@@H]1C[C@@H](O)[C@@H]2O [ESTRIOL] | Not Active | Not Active

Target: 5-hydroxytryptamine receptor 4 (Cavia porcellus, UniProt O70528); note: in other assays of this panel Not Active means under 50% inhibition at 10 µM
Assay type: cell membranes, Dunkin-Hartley, Striatum, Membrane
Settings: not given

Sequence of 5-hydroxytryptamine receptor 4 (O70528 whole entry): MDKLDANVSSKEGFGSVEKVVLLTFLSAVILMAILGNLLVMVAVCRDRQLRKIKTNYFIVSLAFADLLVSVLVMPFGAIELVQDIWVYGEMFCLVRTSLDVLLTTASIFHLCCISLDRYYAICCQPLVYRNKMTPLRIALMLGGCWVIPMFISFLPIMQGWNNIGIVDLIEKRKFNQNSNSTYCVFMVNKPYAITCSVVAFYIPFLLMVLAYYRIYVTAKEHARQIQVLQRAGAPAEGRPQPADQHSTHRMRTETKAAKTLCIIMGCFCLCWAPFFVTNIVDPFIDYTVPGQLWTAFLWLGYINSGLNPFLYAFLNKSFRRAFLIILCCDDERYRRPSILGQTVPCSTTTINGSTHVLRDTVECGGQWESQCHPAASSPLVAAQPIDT

SMILES | IC50
COc1cccc2c1C(=O)c1c(O)c3c(c(O)c1C2=O)C[C@@](O)(C(C)=O)C[C@@H]3O[C@H]1C[C@H](N)[C@H](O)[C@H](C)O1 [DAUNORUBICIN] | Not Active
O=C(O)c1cc(-c2ccc(F)cc2F)ccc1O [DIFLUNISAL] | Not Active
C[S+](C)[O-] [DIMETHYL SULFOXIDE] | Not Active
CC1=NN(c2ccccc2)C(=O)C1 [EDARAVONE] | Not Active
CC(C)C[C@H]1C(=O)N2CCC[C@H]2[C@]2(O)O[C@](NC(=O)[C@@H]3C=C4c5cccc6[nH]cc(c56)C[C@H]4N(C)C3)(C(C)C)C(=O)N12 [ERGOCRYPTINE] | Not Active
C[C@]12CC[C@@H]3c4ccc(O)cc4CC[C@H]3[C@@H]1C[C@@H](O)[C@@H]2O [ESTRIOL] | Not Active

Target: Cannabinoid receptor 1 (Homo sapiens, UniProt P21554); note: in other assays of this panel Not Active means under 50% inhibition at 10 µM
Assay type: cell membranes, Chem-1, Membrane
Settings: chem-1

Sequence of Cannabinoid receptor 1 (P21554 whole entry): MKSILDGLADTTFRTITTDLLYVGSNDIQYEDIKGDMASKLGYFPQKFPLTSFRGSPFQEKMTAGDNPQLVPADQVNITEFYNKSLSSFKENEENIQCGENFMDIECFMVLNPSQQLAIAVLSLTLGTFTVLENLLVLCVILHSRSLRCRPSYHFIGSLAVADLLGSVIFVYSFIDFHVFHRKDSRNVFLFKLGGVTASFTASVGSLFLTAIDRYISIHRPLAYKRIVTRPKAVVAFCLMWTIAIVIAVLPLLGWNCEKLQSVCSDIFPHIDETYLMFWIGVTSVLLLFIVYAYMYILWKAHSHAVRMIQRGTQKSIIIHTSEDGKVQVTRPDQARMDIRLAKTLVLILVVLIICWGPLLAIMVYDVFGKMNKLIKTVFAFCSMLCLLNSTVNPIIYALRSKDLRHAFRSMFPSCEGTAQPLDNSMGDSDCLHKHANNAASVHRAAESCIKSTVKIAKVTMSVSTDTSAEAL

SMILES | IC50
COc1cccc2c1C(=O)c1c(O)c3c(c(O)c1C2=O)C[C@@](O)(C(C)=O)C[C@@H]3O[C@H]1C[C@H](N)[C@H](O)[C@H](C)O1 [DAUNORUBICIN] | Not Active
O=C(O)c1cc(-c2ccc(F)cc2F)ccc1O [DIFLUNISAL] | Not Active
C[S+](C)[O-] [DIMETHYL SULFOXIDE] | Not Active
CC1=NN(c2ccccc2)C(=O)C1 [EDARAVONE] | Not Active
CC(C)C[C@H]1C(=O)N2CCC[C@H]2[C@]2(O)O[C@](NC(=O)[C@@H]3C=C4c5cccc6[nH]cc(c56)C[C@H]4N(C)C3)(C(C)C)C(=O)N12 [ERGOCRYPTINE] | Not Active
C[C@]12CC[C@@H]3c4ccc(O)cc4CC[C@H]3[C@@H]1C[C@@H](O)[C@@H]2O [ESTRIOL] | Not Active

Target: T1, Endothelin-1 receptor (Homo sapiens, UniProt P25101); note: in other assays of this panel Not Active means under 50% inhibition at 10 µM
T1 sequence (P25101 whole entry): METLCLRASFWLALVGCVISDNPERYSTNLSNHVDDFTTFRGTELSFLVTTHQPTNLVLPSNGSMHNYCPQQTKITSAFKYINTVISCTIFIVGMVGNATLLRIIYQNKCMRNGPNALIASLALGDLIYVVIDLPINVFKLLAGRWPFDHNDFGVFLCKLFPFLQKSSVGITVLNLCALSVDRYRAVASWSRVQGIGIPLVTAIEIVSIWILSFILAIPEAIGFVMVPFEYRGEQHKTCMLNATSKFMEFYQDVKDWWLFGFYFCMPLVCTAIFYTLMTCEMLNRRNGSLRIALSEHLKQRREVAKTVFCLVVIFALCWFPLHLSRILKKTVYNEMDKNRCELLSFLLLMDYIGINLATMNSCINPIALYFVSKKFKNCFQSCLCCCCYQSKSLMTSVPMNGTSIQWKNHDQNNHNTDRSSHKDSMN
Assay type: cell membranes, Membrane
Settings: cho-k1

SMILES | IC50
COc1cccc2c1C(=O)c1c(O)c3c(c(O)c1C2=O)C[C@@](O)(C(C)=O)C[C@@H]3O[C@H]1C[C@H](N)[C@H](O)[C@H](C)O1 [DAUNORUBICIN] | Not Active
O=C(O)c1cc(-c2ccc(F)cc2F)ccc1O [DIFLUNISAL] | Not Active
C[S+](C)[O-] [DIMETHYL SULFOXIDE] | Not Active
CC1=NN(c2ccccc2)C(=O)C1 [EDARAVONE] | Not Active
CC(C)C[C@H]1C(=O)N2CCC[C@H]2[C@]2(O)O[C@](NC(=O)[C@@H]3C=C4c5cccc6[nH]cc(c56)C[C@H]4N(C)C3)(C(C)C)C(=O)N12 [ERGOCRYPTINE] | Not Active
C[C@]12CC[C@@H]3c4ccc(O)cc4CC[C@H]3[C@@H]1C[C@@H](O)[C@@H]2O [ESTRIOL] | Not Active

Target: Melanocortin receptor 5 (Homo sapiens, UniProt P33032); note: in other assays of this panel Not Active means under 50% inhibition at 10 µM
Assay type: cell membranes, HEK293, Membrane
Settings: hek293

Sequence of Melanocortin receptor 5 (P33032 whole entry): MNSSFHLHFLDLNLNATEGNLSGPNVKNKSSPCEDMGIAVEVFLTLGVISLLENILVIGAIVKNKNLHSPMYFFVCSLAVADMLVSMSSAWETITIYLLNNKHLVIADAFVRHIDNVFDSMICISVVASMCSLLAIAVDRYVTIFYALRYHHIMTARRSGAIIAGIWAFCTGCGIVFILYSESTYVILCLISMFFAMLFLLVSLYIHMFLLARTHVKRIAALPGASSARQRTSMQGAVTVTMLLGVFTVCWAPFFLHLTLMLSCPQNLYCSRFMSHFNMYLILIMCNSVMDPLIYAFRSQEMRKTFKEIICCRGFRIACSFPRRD

SMILES | IC50
COc1cccc2c1C(=O)c1c(O)c3c(c(O)c1C2=O)C[C@@](O)(C(C)=O)C[C@@H]3O[C@H]1C[C@H](N)[C@H](O)[C@H](C)O1 [DAUNORUBICIN] | Not Active
O=C(O)c1cc(-c2ccc(F)cc2F)ccc1O [DIFLUNISAL] | Not Active
C[S+](C)[O-] [DIMETHYL SULFOXIDE] | Not Active
CC1=NN(c2ccccc2)C(=O)C1 [EDARAVONE] | Not Active
CC(C)C[C@H]1C(=O)N2CCC[C@H]2[C@]2(O)O[C@](NC(=O)[C@@H]3C=C4c5cccc6[nH]cc(c56)C[C@H]4N(C)C3)(C(C)C)C(=O)N12 [ERGOCRYPTINE] | Not Active
C[C@]12CC[C@@H]3c4ccc(O)cc4CC[C@H]3[C@@H]1C[C@@H](O)[C@@H]2O [ESTRIOL] | Not Active

Target: Mitogen-activated protein kinase 1 (Homo sapiens, UniProt P28482)
Test: DRUGMATRIX: Protein Serine/Threonine Kinase, ERK2 enzyme inhibition (substrate: Myelin Basic Protein)
Parameters: species or system Escherichia coli
Settings: Not Active = under 50% inhibition at 10 µM

Sequence of Mitogen-activated protein kinase 1 (P28482 whole entry): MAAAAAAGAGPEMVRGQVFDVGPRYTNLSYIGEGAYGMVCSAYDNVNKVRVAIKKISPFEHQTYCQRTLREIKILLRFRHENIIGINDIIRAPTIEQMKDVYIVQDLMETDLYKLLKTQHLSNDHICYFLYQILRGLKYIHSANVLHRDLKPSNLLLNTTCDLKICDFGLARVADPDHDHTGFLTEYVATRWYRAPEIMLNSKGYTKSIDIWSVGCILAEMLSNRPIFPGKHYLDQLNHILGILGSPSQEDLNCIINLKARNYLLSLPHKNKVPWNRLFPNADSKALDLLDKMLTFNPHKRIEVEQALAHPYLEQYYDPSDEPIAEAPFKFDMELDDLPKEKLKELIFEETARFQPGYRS

SMILES | IC50
COc1cccc2c1C(=O)c1c(O)c3c(c(O)c1C2=O)C[C@@](O)(C(C)=O)C[C@@H]3O[C@H]1C[C@H](N)[C@H](O)[C@H](C)O1 [DAUNORUBICIN] | Not Active
O=C(O)c1cc(-c2ccc(F)cc2F)ccc1O [DIFLUNISAL] | Not Active
C[S+](C)[O-] [DIMETHYL SULFOXIDE] | Not Active
CC1=NN(c2ccccc2)C(=O)C1 [EDARAVONE] | Not Active
CC(C)C[C@H]1C(=O)N2CCC[C@H]2[C@]2(O)O[C@](NC(=O)[C@@H]3C=C4c5cccc6[nH]cc(c56)C[C@H]4N(C)C3)(C(C)C)C(=O)N12 [ERGOCRYPTINE] | Not Active
C[C@]12CC[C@@H]3c4ccc(O)cc4CC[C@H]3[C@@H]1C[C@@H](O)[C@@H]2O [ESTRIOL] | Not Active

Target: T2, 5-hydroxytryptamine receptor 1A (Rattus norvegicus, UniProt P19327); note: in other assays of this panel Not Active means under 50% inhibition at 10 µM
T2 sequence (P19327 whole entry): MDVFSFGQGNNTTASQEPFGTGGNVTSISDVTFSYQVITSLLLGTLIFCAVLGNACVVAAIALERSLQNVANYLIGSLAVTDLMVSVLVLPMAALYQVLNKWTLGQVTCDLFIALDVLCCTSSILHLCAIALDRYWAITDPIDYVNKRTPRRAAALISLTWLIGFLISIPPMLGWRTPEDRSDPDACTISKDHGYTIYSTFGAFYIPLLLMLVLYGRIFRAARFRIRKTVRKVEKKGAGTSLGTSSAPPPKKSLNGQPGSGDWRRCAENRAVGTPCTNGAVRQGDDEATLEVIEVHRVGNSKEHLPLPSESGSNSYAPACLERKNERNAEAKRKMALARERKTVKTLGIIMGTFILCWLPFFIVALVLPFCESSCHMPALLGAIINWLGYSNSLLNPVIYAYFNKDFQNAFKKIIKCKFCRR
Assay type: cell membranes, CHO-K1, Membrane
Settings: cho-k1

SMILES | IC50
COc1cccc2c1C(=O)c1c(O)c3c(c(O)c1C2=O)C[C@@](O)(C(C)=O)C[C@@H]3O[C@H]1C[C@H](N)[C@H](O)[C@H](C)O1 [DAUNORUBICIN] | Not Active
O=C(O)c1cc(-c2ccc(F)cc2F)ccc1O [DIFLUNISAL] | Not Active
C[S+](C)[O-] [DIMETHYL SULFOXIDE] | Not Active
CC1=NN(c2ccccc2)C(=O)C1 [EDARAVONE] | Not Active
C[C@]12CC[C@@H]3c4ccc(O)cc4CC[C@H]3[C@@H]1C[C@@H](O)[C@@H]2O [ESTRIOL] | Not Active

Same assay, conditions: read-out: IC50

SMILES | IC50 [nM]
CC(C)C[C@H]1C(=O)N2CCC[C@H]2[C@]2(O)O[C@](NC(=O)[C@@H]3C=C4c5cccc6[nH]cc(c56)C[C@H]4N(C)C3)(C(C)C)C(=O)N12 [ERGOCRYPTINE] | 2.63

Same assay, conditions: read-out: Ki

SMILES | Ki [nM]
CC(C)C[C@H]1C(=O)N2CCC[C@H]2[C@]2(O)O[C@](NC(=O)[C@@H]3C=C4c5cccc6[nH]cc(c56)C[C@H]4N(C)C3)(C(C)C)C(=O)N12 [ERGOCRYPTINE] | 1.5

Target: Cytochrome P450 2D6 (Homo sapiens, UniProt P10635); note: in other assays of this panel Not Active means under 50% inhibition at 10 µM
Settings: bti-tn-5b1-4

Sequence of Cytochrome P450 2D6 (P10635 whole entry): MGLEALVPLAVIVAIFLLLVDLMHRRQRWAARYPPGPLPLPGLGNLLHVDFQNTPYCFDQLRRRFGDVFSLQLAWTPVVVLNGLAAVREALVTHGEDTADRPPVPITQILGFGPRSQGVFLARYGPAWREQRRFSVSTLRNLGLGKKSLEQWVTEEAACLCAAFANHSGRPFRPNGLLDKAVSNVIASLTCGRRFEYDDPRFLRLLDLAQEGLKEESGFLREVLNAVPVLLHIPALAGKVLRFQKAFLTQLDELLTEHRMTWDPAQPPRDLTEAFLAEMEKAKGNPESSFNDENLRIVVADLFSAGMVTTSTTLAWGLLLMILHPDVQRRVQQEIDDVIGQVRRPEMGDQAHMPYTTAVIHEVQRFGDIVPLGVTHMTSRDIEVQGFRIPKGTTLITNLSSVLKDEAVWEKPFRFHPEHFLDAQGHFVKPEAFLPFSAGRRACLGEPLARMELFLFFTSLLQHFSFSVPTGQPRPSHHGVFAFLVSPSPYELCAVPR

SMILES | IC50 | Ki
COc1cccc2c1C(=O)c1c(O)c3c(c(O)c1C2=O)C[C@@](O)(C(C)=O)C[C@@H]3O[C@H]1C[C@H](N)[C@H](O)[C@H](C)O1 [DAUNORUBICIN] | Not Active | Not Active
O=C(O)c1cc(-c2ccc(F)cc2F)ccc1O [DIFLUNISAL] | Not Active | Not Active
C[S+](C)[O-] [DIMETHYL SULFOXIDE] | Not Active | Not Active
CC1=NN(c2ccccc2)C(=O)C1 [EDARAVONE] | Not Active | Not Active
CC(C)C[C@H]1C(=O)N2CCC[C@H]2[C@]2(O)O[C@](NC(=O)[C@@H]3C=C4c5cccc6[nH]cc(c56)C[C@H]4N(C)C3)(C(C)C)C(=O)N12 [ERGOCRYPTINE] | Not Active | Not Active
C[C@]12CC[C@@H]3c4ccc(O)cc4CC[C@H]3[C@@H]1C[C@@H](O)[C@@H]2O [ESTRIOL] | Not Active | Not Active
